In US9394264B2 (Receptos, Inc., priority 2009, dated 2016) one finds EC50 data, which are given here for 6 molecules.

What all share (type): cell-based
One assay addresses S1P1/EDG1 (Homo sapiens, UniProt P21453). Kind of assay: S1P1 CRE-bla CHOK1 reporter assay (inhibition of Forskolin induced cAMP). To be noted: S1P1 CRE-bla CHOK1 cells, 2 μM Forskolin. From the text: A mammalian expression plasmid containing S1P1/EDG1 cloned into pcDNA3.1 was purchased from Missouri S&T cDNA Resource Centre. The nucleotide and amino acid sequence of human S1P1/EDG1 are published in Hla and Maciag (J Biol Chem, 265(1990), 9308-9313). S1P1/pcDNA3.1 was transfected into the CRE-bla CHO K1 (Invitrogen) cell line, and stable single cell clones were selected using standard techniques. Expression of functional S1P1/EDG1 receptor was confirmed by cell surface FACS with a S1P1 antibody (R&D Systems, clone 218713) and S1P-mediated inhibition of Forskolin induced cAMP.
(§1) Cells were seeded into 384-well black wall/clear bottom plates at 10^4 cells/well/19.5 μl assay media (DMEM-phenol free, 0.5% charcoal/dextran stripped serum, 2 mM glutamine, 0.1 mM NEAA, 1 mM Na-Pyruvate, 25 mM Hepes) and incubated for 18 hrs at 37° C. in 5% CO2. Dose response curves (10-point) were generated in 10 mM Hepes, 0.1% Pluronic F127, in the presence of Forskolin. Cells were treated with 0.5 μl compound in the presence of 2 μM Forskolin for 4 hrs at 37° C. The FRET-based β-lactamase fluorescent substrate (LiveBLAzer™-FRET B/G Loading Kit CC4-AM; Invitrogen) was prepared according to manufacturer's directions, and incubated with cells for 2 hrs at room temperature. Plates were read at Ex:410/Em:458 and Ex:410/Em:522, and the response ratio determined. Data was analyzed by non-linear regression to determine the EC50 for inhibition of Forskolin induced cAMP.
On the technique in general: Reporter assays use an easily measured gene product as a stand-in for the process of interest.

Another assay concerns the target T1, S1P2 (Homo sapiens, UniProt O95136).
T1 construct: expressed in transfected cells; host or cells: CRE-bla CHOK1
Kind of assay: Specificity over other S1P receptors: S1P2 CRE-bla CHOK1. To be noted: S1P2 CRE-bla CHOK1, without Forskolin; read-out: S1P2 agonist value (EC50). The method, then: as §1
(§2) To assess compound specificity on other S1P receptors the following cell lines were used: S1P2 CRE-bla CHOK1, S1P3-Gα15 NFAT-bla HEK293T (Invitrogen), S1P4-bla TANGO U2OS (Invitrogen), S1P5-bla TANGO U2OS (Invitrogen). The same assay set up for S1P1 was used but without Forskolin. S1P4 and S1P5 assays were performed in FreeStyle Expression medium (Invitrogen). S1P5 cells were incubated for 48 hrs in prior to treatment with compound.

In a further assay the target is T2, S1P3 (Homo sapiens, UniProt Q99500).
T2 construct: host or cells: NFAT-bla HEK293T
T2 sequence (Q99500 whole entry): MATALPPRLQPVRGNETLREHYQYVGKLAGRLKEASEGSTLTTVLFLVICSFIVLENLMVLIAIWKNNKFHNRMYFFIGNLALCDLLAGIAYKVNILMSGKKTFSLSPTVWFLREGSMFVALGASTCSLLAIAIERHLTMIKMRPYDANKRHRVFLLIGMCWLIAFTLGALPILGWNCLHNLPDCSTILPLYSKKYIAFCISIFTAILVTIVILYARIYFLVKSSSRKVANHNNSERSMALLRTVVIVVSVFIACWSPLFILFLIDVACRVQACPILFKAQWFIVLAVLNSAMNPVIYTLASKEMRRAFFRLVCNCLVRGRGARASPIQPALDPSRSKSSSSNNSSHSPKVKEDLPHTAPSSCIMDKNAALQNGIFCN
Kind of assay: Specificity over other S1P receptors: S1P3-Gα15 NFAT-bla HEK293T. To be noted: without Forskolin, read-out: S1P3 agonist value (EC50). On the procedure:
as §1, §2

A further assay addresses T3, S1P4 (Homo sapiens, UniProt O95977).
T3 construct: Tango fusion (C); host or cells: U2OS (Tango, bla reporter)
T3 sequence (O95977 1-384): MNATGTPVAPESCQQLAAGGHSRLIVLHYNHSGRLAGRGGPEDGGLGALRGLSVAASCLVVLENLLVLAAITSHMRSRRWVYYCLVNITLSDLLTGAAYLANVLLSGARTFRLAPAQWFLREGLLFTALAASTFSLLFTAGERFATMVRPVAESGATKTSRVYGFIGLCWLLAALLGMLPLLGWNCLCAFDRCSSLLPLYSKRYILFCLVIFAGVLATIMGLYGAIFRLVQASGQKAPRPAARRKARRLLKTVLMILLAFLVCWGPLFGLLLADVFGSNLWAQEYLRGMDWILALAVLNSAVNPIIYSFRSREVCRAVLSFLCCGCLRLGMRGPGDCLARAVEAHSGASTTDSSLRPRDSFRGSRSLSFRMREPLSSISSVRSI
Kind of assay: Specificity over other S1P receptors: S1P4-bla TANGO U2OS. To be noted: without Forskolin, read-out: S1P4 agonist value (EC50). The method, then:
as §1, §2

In another assay the target is T4, S1P5 (Homo sapiens, UniProt Q9H228).
T4 construct: Tango fusion (C); host or cells: U2OS (Tango, bla reporter)
T4 sequence (Q9H228 whole entry, the tested form may be a part): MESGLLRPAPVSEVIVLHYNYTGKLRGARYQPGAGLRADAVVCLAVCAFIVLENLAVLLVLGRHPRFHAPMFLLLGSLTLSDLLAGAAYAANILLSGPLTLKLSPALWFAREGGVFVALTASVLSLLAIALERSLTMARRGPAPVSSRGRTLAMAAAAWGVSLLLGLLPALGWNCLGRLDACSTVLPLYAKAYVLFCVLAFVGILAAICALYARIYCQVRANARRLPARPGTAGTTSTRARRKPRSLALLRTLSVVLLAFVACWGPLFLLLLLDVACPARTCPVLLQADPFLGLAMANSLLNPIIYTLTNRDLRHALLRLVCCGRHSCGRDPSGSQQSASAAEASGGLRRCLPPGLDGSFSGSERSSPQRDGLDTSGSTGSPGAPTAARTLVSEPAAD
Kind of assay: Specificity over other S1P receptors: S1P5-bla TANGO U2OS. To be noted: without Forskolin, read-out: S1P5 agonist value (EC50). On the procedure: as §1, §2

The mark [1] stands for this setting: read-out: S1P1 agonist value (EC50).
Where [2] appears, read: agonist activity range, read-out: S1P1 ACTIVITY

Like-named read-outs stand apart in the source and are kept apart here. Where only a bound is given, the exact number is not on record here.

T1 sequence (O95136 whole entry, species assumed): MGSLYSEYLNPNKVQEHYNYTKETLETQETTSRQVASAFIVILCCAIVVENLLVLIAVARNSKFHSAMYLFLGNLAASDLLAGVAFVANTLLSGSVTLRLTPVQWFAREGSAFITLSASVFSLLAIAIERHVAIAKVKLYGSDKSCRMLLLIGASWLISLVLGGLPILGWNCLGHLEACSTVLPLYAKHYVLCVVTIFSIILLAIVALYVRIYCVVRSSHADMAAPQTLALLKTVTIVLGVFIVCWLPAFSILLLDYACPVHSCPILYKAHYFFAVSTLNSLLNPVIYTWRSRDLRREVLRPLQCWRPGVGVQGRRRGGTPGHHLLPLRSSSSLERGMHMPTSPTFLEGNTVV
Sequence of S1P1/EDG1 (P21453 whole entry): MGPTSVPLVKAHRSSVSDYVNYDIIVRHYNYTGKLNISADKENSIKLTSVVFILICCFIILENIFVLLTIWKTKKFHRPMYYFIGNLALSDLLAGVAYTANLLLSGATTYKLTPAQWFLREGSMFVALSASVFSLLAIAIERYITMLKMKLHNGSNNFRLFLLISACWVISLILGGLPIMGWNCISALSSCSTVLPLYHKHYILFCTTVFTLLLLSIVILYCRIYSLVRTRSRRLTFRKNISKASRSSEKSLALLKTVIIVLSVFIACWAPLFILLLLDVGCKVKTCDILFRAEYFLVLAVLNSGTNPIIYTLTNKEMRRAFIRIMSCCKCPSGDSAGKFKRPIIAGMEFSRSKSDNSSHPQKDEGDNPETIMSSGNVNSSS

For the molecule `CC(C)Oc1ccc(-c2nc(-c3cccc4c3CCC[C@@H]4NC(=O)N3CC(O)C3)no2)cc1C#N` [Compound 8, (S)-N-(5-(5-(3-cyano-4-isopropoxyphenyl)-1,2,4-oxadiazol-3-yl)-1,2,3,4-tetrahydronaphthalen-1-yl)-3-hydroxyazetidine-1-carboxamide], the EC50 was 0.143 nM at S1P1/EDG1 (setting [1]); 0.05 to 0.5 nM on S1P1/EDG1 (setting [2]); above 10 µM on S1P2; above 10 µM on S1P3; above 10 µM on S1P4; 109 nM on S1P5.

Take `CC(C)Oc1ccc(-c2nc(-c3cccc4c3CCC[C@H]4NC(=O)N3CC[C@H](O)C3)no2)cc1C#N` [Compound 13]: the EC50 on S1P1/EDG1 (setting [1]) was 0.1 nM; on S1P1/EDG1 (setting [2]) it was 0.05 to 0.5 nM; at S1P2, above 10 µM; at S1P3 it was above 10 µM; at S1P4 it was above 10 µM; on S1P5 it was 77 nM.

Regarding `CC(C)Oc1ccc(-c2nc(-c3cccc4c3CCC[C@@H]4NS(C)(=O)=O)no2)cc1C#N` [Compound 29, (S)-N-(5-(5-(3-cyano-4-isopropoxyphenyl)-1,2,4-oxadiazol-3-yl)-1,2,3,4-tetrahydronaphthalen-1-yl)methanesulfonamide], the EC50 on S1P1/EDG1 (setting [1]) is 0.065 nM; at S1P1/EDG1 (setting [2]), 0.05 to 0.5 nM; at S1P2 it was above 10 µM; at S1P3 it was above 10 µM; on S1P4 it was above 10 µM; on S1P5, 37.8 nM.

As for `COCCS(=O)(=O)N[C@H]1CCCc2c(-c3noc(-c4ccc(OC(C)C)c(C#N)c4)n3)cccc21` [Compound 33, (S)-N-(5-(5-(3-cyano-4-isopropoxyphenyl)-1,2,4-oxadiazol-3-yl)-1,2,3,4-tetrahydronaphthalen-1-yl)-2-methoxyethanesulfonamide], the EC50 is 0.192 nM at S1P1/EDG1 (setting [1]); 0.05 to 0.5 nM on S1P1/EDG1 (setting [2]); above 10 µM on S1P2; above 10 µM on S1P3; 0.617 µM at S1P4; 260 nM on S1P5.

`CC(C)Oc1ccc(-c2nc(-c3cccc4c3CCC[C@H]4NS(=O)(=O)CCO)no2)cc1C#N` [Compound 37, (R)-N-(5-(5-(3-cyano-4-isopropoxyphenyl)-1,2,4-oxadiazol-3-yl)-1,2,3,4-tetrahydronaphthalen-1-yl)-2-hydroxyethanesulfonamide]: the EC50 on S1P1/EDG1 (setting [1]) is 0.024 nM; on S1P1/EDG1 (setting [2]) it was below 0.05 nM; on S1P2, 1.44 µM; on S1P3, above 10 µM; on S1P4 it was 0.879 µM; on S1P5, 3.5 nM.

In the case of `CC(C)Oc1ccc(-c2nc(-c3cccc4c3CCC[C@@H]4NCCS(C)(=O)=O)no2)cc1C#N` [Compound 49, (S)-2-isopropoxy-5-(3-(5-((42-(methylsulfonyl)ethyl)amino)-5,6,7,8-tetrahydronaphthalen-1-yl)-1,2,4-oxadiazol-5-yl)benzonitrile], the EC50 is 0.104 nM at S1P1/EDG1 (setting [1]); 0.05 to 0.5 nM on S1P1/EDG1 (setting [2]); above 10 µM on S1P2; above 10 µM at S1P3; above 10 µM at S1P4; 94.6 nM on S1P5.
